Key:
[1] = target: T1, rhPKCβ2 (Homo sapiens, UniProt P05771); assay: PKC activity assay; format: biochemical; details: 0.01 μM ATP; read-out: IC50 rhPKC activity
T1 construct: made in house; host or cells: baculovirus expression system
Protocol: RhPKCβ2 was expressed in a baculovirus expression system. Kinase reactions were conducted in 50 μl comprising 0.5 μg rhPKC diluted in 2 mM Tris, and 100 μM EGTA and reaction buffer comprising substrate (0.9 mM EGTA, 1.1 mM CaCl2, 0.01 mg/ml glycogen synthase peptide (H-[…]OH) (Bachem, King of Prussia, Pa.), 40 μg/ml L-α-Phosphatidyl-L-serine, 1 μg/ml 1,3-Diolen, 10 mM MgCl2, pH 7.5). To assess PKA activity, kinase reactions were conducted in 50 μl comprising 0.5 μg PKA (from bovine heart supplied by Sigma, St. Louis, Mo.) diluted in 10 mM MOPS, pH 6.5 and reaction buffer comprising substrate (50 mM MOPS, pH 6.5, 10 mM MgCl2, 0.1 mg/ml Histone-IIA (Sigma, St. Louis, Mo.), 1 μM cAMP). An ATP solution (0.01 μM ATP and 0.5 μCi of [γ^33-P] ATP) was then added to the wells in both assay systems. Inhibitors were added at the indicated concentrations with a final DMSO concentration of 10%. Reactions were allowed to proceed for 20 minutes at 37° C. and were stopped with 25 mM EDTA. The reactions were spotted onto filter paper, washed four times in a beaker comprising 75 mM phosphoric acid and rinsed with acetone. Filters were dried and put in scintillation vials with fluid and counted.

[2] = target: T2, GST-Tie2 (Homo sapiens, UniProt Q02763); assay: GST-Tie kinase activity assay; format: biochemical
T2 construct: Each reaction comprised 5 μg GST-Tie2 (intracellular kinase domain); made in house; host or cells: baculovirus (pAcG1 vector)
T2 sequence (Q02763 824-1096 limits assumed): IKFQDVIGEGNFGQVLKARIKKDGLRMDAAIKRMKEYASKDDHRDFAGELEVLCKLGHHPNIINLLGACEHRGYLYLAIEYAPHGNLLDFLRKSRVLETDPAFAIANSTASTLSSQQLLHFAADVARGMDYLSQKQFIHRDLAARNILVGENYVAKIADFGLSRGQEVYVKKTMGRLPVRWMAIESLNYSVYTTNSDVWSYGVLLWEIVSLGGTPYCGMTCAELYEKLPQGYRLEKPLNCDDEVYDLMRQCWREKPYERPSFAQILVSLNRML
Protocol: To determine the effect of SCY on GST-Tie kinase activity, the following assay was conducted. Clones for the Tie2 receptor were obtained and submitted for confirmatory sequence analysis. Similar to the method described by Huang et al. (1995) Oncogene 11:2097-2103, which is herein incorporated by reference, GST fusion constructs using the human Tie kinase domains and the commercially available pAcG1 vector (Pharmigen, San Diego, Calif.) were constructed. […] The desired restriction fragment was recovered from a partial Tie2 cDNA clone and then subcloned directly into the EcoRI site of the commercially pAcG1 expression vector. These final constructs were transfected into the baculovirus and GST-Tie2 kinase was semipurified using a glutathione affinity column to greater than about 90% purity, as determined via SDS-PAGE analysis and Coomassie Blue staining.
The kinase assay is carried out in 96 well flashplates and in the same kinase buffer used in the PLK1 kinase assays. Each reaction comprised 5 μg GST-Tie2 (intracellular kinase domain), 1 μCi [^33P]-γATP, 30 μM cold ATP in 60 μl. Compounds were in DMSO to give a final concentration of 1% DMSO. The reaction was incubated for 2 hours at 30° C. and terminated by washing the plate five times with 10 μM cold ATP. Reactions were quantitated by using a Packard Top-Count.

[3] = target: T3, CDK1/cyclinB1 (Homo sapiens, UniProt P06493); assay: CDK1/cyclinB histone H1 phosphorylation assay; format: biochemical; details: 0.1 μM ATP, histone H1 substrate
T3 construct: made in house
T3 sequence (P06493 whole entry): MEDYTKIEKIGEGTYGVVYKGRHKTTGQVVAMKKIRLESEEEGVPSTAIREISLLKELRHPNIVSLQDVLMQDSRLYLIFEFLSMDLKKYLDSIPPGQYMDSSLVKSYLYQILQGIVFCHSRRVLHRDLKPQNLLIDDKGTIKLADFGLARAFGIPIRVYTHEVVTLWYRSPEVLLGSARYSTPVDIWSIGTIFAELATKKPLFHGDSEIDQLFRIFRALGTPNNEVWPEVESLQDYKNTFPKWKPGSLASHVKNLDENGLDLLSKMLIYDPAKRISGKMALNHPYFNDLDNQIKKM
T3 sequence (P14635 whole entry partner): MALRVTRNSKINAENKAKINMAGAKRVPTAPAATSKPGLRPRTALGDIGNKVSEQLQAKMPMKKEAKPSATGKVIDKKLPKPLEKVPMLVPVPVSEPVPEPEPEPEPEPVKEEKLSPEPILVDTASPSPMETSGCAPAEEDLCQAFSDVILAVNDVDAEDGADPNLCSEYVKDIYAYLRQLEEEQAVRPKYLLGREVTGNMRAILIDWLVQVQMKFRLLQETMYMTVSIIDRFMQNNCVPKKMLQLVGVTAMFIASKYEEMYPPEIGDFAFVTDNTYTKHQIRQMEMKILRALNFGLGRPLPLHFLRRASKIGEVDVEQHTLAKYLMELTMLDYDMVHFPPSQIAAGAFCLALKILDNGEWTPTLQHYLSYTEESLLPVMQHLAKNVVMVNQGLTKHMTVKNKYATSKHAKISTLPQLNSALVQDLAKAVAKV
Protocol: To determine the effect of SCY on CDK1/cyclinB1 kinase activity, the following assay was conducted. Baculovirus vectors expressing CDK1 and cyclinB1, obtained from Dr. David Morgan of the University of California San Francisco, were expressed and purified by the method described in Desai, et al. (1992) Mol. Cell Biol. 3:571-582, which is herein incorporated by reference, to 80% purity as determined by SDS-PAGE analysis and Coomassie Blue staining. CDK1/cyclinB1 kinase activity was analyzed in a 96-well flashplate assay using 2.0 μg/well bovine histone H1 as a substrate. Reactions were run in 50 μl with 0.25 μg of CDK1/cyclinB1 complex, in reaction buffer (50 mM HEPES, pH 7.4, 10 mM MgCl2, 0.1 μM ATP, 1 mM DTT and 0.5 μCi of [γ^33-P] ATP (final reaction concentrations)), and SCY (1 nM to 10 μM final reaction concentration). The positive control used was […] hymenialdisine (final concentration) in a final vehicle concentration of 1% DMSO.
Reactions were initiated with the addition of ATP and allowed to proceed for 10 minutes at room temperature. The reactions were stopped by washing the plate five times with 300 μl/well of PBS. The plate was then counted on a Packard Top-Count.

[4] = test system: rheumatoid synovial fibroblasts (RSFs); assay: [3H]-thymidine incorporation assay, PDGF-BB stimulated rheumatoid synovial fibroblasts; format: cell-based, human; details: induced by platelet-derived growth factor (1 nM PDGF-BB); listed as SCY; read-out: IC50 rheumatoid synovial fibroblast proliferation
Protocol: To determine the effect of SCY on the proliferation of several cell types, proliferation was measured in response to growth factor or serum by tritiated thymidine uptake. Rheumatoid synovial fibroblasts (RSFs) obtained from Dr. Gene Mochan at PCOM (Philadelphia, Pa.), normal human lung fibroblasts (NHLFs) (Clonetics, San Diego, Calif.), human umbilical vein endothelial cells (HUVECs) (Clonetics, San Diego, Calif.), and Jurkat T cells (ATCC, Rockville, Md.) were plated in 96 well cell culture plates (Falcon, Franklin Lakes, N.J.). About 1.2×10^4 RSF cells/well and about 1×10^4 NHLF cells/well were plated in EMEM (Eagle's Minimum Essential Medium) (Sigma, St. Louis, Mo.) comprising 10 units penicillin-streptomycin (penstrep) (GibcoBRL, Grand Island, N.Y.) and 10% FBS. About 5×10^3 HUVEC cells/well were plated in CSC media (Cell Systems, Seattle, Wash.) with 10% FBS. Fibroblasts were allowed to adhere for about 6 to about 24 hours at 37° C., 5% CO2 and the media was changed to EMEM or CSC, 0.2% FBS and incubated for 24 hours. About 2×10^4 Jurkat T cells/well (ATCC, Rockville, Md.) were plated in RPMI (Gibco BRL, Grand Island, N.Y.), comprising 10% FBS and 10 units penstrep.
All cells were incubated with compound or vehicle (0.5% DMSO) for 15 minutes at room temperature. […] [^3H]-thymidine incorporation into the DNA was measured on a Packard Top-Count.

[5] = test system: PMA-induced mouse ear skin hyperplasia; assay: Tissue hyperplasia assay (PMA-induced mouse ear skin hyperplasia); format: in vivo
Protocol: To determine the in vivo efficacy of syctonemin, PMA-induced mouse ear skin hyperplasia model was used. As one cause of tissue hyperplasia is chronic inflammation, mouse ear skin was exposed to multiple PMA applications to simulate chronic inflammation. Specifically, 0.125, 0.25, 0.5, or 1.0 mg of scytonemin in 20 μl of 20% DMSO and 80% acetone was applied to the inner pinnae of the left ears of male, Swiss Webster mice (Taconic Farms, Germantown, N.Y.) at 0, 5, 24, 29, 48, and 53 hours. The inner pinnae of the right ears received only 10 μl of vehicle and 10 μl of acetone at 0, 5, 24, 29, 48, and 53 hours. At 0.5 and 48.5 hours, 4 μg/ear PMA (Sigma, St. Louis, Mo.) in 10 μl acetone was applied to the inner pinnae the left ears and 10 μl acetone was applied to each right ear. One hour after the last scytonemin application (54 hours) each mouse was injected with 0.6 ml of a solution containing IUdR (2 μCi-I^125/mouse) and 26 μg FUdR. This IUdR/FUdR solution was made up in RPMI 1640 media. At 72 hours, the mice were euthanized via CO2 inhalation, the ears were excised and soaked individually in a 70% EtOH solution overnight.
At 96 hours, IUdR incorporation was then measured using a Beckman Gamma counter, Model 5500B. […] IUdR incorporated was calculated by the following equation: % IUdR incorporation=(Count of Ear−Background)/(Total Count−Background). The percent of control of IUdR incorporation was calculated by the following equation: % Control=(% IUdR Uptake in Sample Ear)/(% IUdR Uptake PMA−Treated Control Ear)×100.
Alternatively, the cyrosections of the mouse ears were stained and histologically analyzed. […]
At 72 hours, the mice were euthanized and the ears were immediately embedded in a suitable hypoxy resin such as OCT media and snap frozen using melting isopentane using conventional methods. […] The sections were fixed and stained with hematoxlin and then analyzed under a microscope with a 10× magnification.

T1 sequence (P05771 1-673 isoform P05771-2): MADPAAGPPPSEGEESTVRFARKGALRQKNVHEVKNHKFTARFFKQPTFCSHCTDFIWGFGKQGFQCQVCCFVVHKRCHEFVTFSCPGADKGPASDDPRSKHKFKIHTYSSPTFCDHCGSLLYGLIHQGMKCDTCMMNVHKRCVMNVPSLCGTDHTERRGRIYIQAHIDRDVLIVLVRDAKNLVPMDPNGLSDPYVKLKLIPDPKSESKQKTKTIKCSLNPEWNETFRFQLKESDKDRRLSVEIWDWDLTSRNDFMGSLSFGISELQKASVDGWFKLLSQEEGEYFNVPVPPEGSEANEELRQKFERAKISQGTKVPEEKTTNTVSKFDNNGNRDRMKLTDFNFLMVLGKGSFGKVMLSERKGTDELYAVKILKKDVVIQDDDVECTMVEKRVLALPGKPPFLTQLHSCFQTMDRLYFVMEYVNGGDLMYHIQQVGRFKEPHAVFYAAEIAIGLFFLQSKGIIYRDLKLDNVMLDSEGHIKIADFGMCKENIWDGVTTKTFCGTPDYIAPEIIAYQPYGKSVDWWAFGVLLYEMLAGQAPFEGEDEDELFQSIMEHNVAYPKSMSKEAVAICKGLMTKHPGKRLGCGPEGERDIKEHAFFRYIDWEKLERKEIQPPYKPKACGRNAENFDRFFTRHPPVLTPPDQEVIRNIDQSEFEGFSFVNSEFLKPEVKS

scytonemin
IC50 [1]: ~3000 nM
IC50 [2]: > 10000 nM
concentration at which GST-Tie2 activity is significantly affected or inhibited ([2]; 30 μM cold ATP): ≥ 10 µM
IC50 [3]: ~3000 nM
IC50 [4]: ~1500 nM
thickness of the epidermal layer ([5]; PMA-treated mouse ears): reduced the thickness of the epidermal layer
tissue hyperplasia (histology, hematoxlin) ([5]; scytonemin 1 mg/ear, dexamethasone 0.15 mg/ear, PMA 4 μg/ear): to about normal
ED50 skin hyperplasia (IUdR incorporation) ([5]; topical): about 0.270±0.11 mg/ear
